Measured values as given in the supplement of paper PMC11208160.

Test: recombinant barcode read abundance after kanamycin selection (control-corrected) (log10(CPM+1)); higher = more efficient recombination; sequences stand for … in AGTGCAGAGAAAATCGGCCAGTTTTCTCTGCCTGCAGTCCGCATGCCGT…AGATTTATGCAGCGGACTGCCTTTCTCCCAAAGTGATAAACCGGACAGTATCATGGACCGGTTTTCCCGGTAATCCGTATTTGCAAGGTTGGTTTCACT; site = the 11-nt target
How it was run: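 Each value is log10(CPM+1). It describes recombination efficiency, taken as averaged, control-corrected counts per million of barcodes at recombinant junctions. The pooled E. coli library paired targets with IS621 bridge RNA target-binding loops, was co-electroporated with a donor plasmid, and was plated twice on chloramphenicol/ampicillin LB agar (control) and twice on chloramphenicol/ampicillin/kanamycin containing 0.1 mM IPTG.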
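Further: IS621 recombinase and bridge RNA in Escherichia coli cells.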

Sequence | recombinant barcode read abundance (log10)
CGTACCTCTTGGGTTCTAACCTGTTGCTA (site CGTACCTCTCA) | 0.123
CGTACCTCTTGGGTTCTAACCTGTTGCTA (site CGTACCTCTGA) | 0.0598
CGTACCTCTTGGGTTCTAACCTGTTGCTA (site CGTACCTCTTA) | 0.166
CGTACCTCTTGGGTTCTAACCTGTTGCTT (site CGTACCTCTAA) | 0.579
CGTACCTCTTGGGTTCTAACCTGTTGCTT (site CGTACCTCTCA) | 0.125
CGTACCTCTTGGGTTCTAACCTGTTGCTT (site CGTACCTCTGA) | 0.406
CGTACCTCTTGGGTTCTAACCTGTTGCTT (site CGTACCTCTTA) | 0.127
CGTACTACTTGGGTTCTAACCTGTTGCAC (site CGTACTACTGT) | 0.0785
CGTACTACTTGGGTTCTAACCTGTTGCAC (site GGTACTACTAT) | 0.128
CGTCAACCTTGGGTTCTAACCTGTTGCCT (site CGTCAACCTAG) | 0.0446
CGTCAACCTTGGGTTCTAACCTGTTGCCT (site CGTCACCCTAG) | 0.117
CGTCAACCTTGGGTTCTAACCTGTTGCCT (site CGTCAGCCTAG) | 0.177
CGTCAACCTTGGGTTCTAACCTGTTGCCT (site CGTCATCCTAG) | 0.115
CGTCACACTTGGGTTCTAACCTGTTGCCT (site CGACACACTAG) | 0.013
CGTCACACTTGGGTTCTAACCTGTTGCCT (site CGCCACACTAG) | 0.107
CGTCACACTTGGGTTCTAACCTGTTGCCT (site CGGCACACTAG) | 0.052
CGTCACACTTGGGTTCTAACCTGTTGCCT (site CGTCACACTAG) | 0.013
CGTCCGACTTGGGTTCTAACCTGTTGCAT (site CGTACGACTAT) | 0.0562
CGTCCGACTTGGGTTCTAACCTGTTGCAT (site CGTCCGACTAT) | 0.113
CGTCCGACTTGGGTTCTAACCTGTTGCAT (site CGTGCGACTAT) | 0.0838
CGTCCGACTTGGGTTCTAACCTGTTGCAT (site CGTTCGACTAT) | 0
CGTCGGGCTTGGGTTCTAACCTGTTGCAG (site CATCGGGCTCT) | 0.367

Sequence | recombinant barcode read abundance (log10)
CGTCGGGCTTGGGTTCTAACCTGTTGCAG (site CCTCGGGCTCT) | 0.107
CGTCGGGCTTGGGTTCTAACCTGTTGCAG (site CGTCGGGCTCT) | 1.38
CGTCGGGCTTGGGTTCTAACCTGTTGCAG (site CTTCGGGCTCT) | 0.258
CGTCTACCTTGGGTTCTAACCTGTTGCCT (site AGTCTACCTAG) | 0.0669
CGTCTACCTTGGGTTCTAACCTGTTGCCT (site CGTCTACCTAG) | 0.333
CGTCTAGCTTGGGTTCTAACCTGTTGCCA (site CGTCTAGCTTG) | 0.0938
CGTCTAGCTTGGGTTCTAACCTGTTGCCA (site CGTGGAGCTTG) | 0.0343
CGTCTGCCTTGGGTTCTAACCTGTTGCCT (site AGTCTGCCTAG) | 0.0222
CGTCTGCCTTGGGTTCTAACCTGTTGCCT (site CGTCTGCCTAG) | 0.0327
CGTCTGCCTTGGGTTCTAACCTGTTGCCT (site GGTCTGCCTAG) | 0.0804
CGTCTGCCTTGGGTTCTAACCTGTTGCCT (site TGTCTGCCTAG) | 0.193
CGTGACCCTTGGGTTCTAACCTGTTGCGG (site CGTGACCCTCC) | 2.34
CGTGACCCTTGGGTTCTAACCTGTTGCGG (site GTGAGAACTTG) | 0.072
CGTGCAGCTTGGGTTCTAACCTGTTGCCT (site CGAGCAGCTAG) | 0.508
CGTGCAGCTTGGGTTCTAACCTGTTGCCT (site CGCGCAGCTAG) | 0.137
CGTGCAGCTTGGGTTCTAACCTGTTGCCT (site CGGGCAGCTAG) | 0.0626
CGTGCAGCTTGGGTTCTAACCTGTTGCCT (site CGTGCAGCTAG) | 0.323
CGTGCGCCTTGGGTTCTAACCTGTTGCCT (site AAACTAGCTCC) | 0.0967
CGTGCGCCTTGGGTTCTAACCTGTTGCCT (site CGTGCGCCTAG) | 0.174
CGTGGTCCTTGGGTTCTAACCTGTTGCGT (site CGTGGTCCTAA) | 0.615
CGTGGTCCTTGGGTTCTAACCTGTTGCGT (site CGTGGTCCTAC) | 2.26
CGTGGTCCTTGGGTTCTAACCTGTTGCGT (site CGTGGTCCTAG) | 0.224

Sequence | recombinant barcode read abundance (log10)
CGTGGTCCTTGGGTTCTAACCTGTTGCGT (site CGTGGTCCTAT) | 1.25
CGTGGTCCTTGGGTTCTAACCTGTTGCTT (site CGTGGTCCTAA) | 0.919
CGTGGTCCTTGGGTTCTAACCTGTTGCTT (site CGTGGTCCTAC) | 0.409
CGTGGTCCTTGGGTTCTAACCTGTTGCTT (site CGTGGTCCTAG) | 0.342
CGTGGTCCTTGGGTTCTAACCTGTTGCTT (site CGTGGTCCTAT) | 0.426
CGTTCCACTTGGGTTCTAACCTGTTGCCT (site CGTTCAACTAG) | 0.0139
CGTTCCACTTGGGTTCTAACCTGTTGCCT (site CGTTCCACTAG) | 0.0687
CGTTCCACTTGGGTTCTAACCTGTTGCCT (site CGTTCGACTAG) | 0.279
CGTTCCACTTGGGTTCTAACCTGTTGCCT (site CGTTCTACTAG) | 0
CTAAACCCTTGGGTTCTAACCTGTTGCGT (site CTAAACCCTAC) | 2.85
CTAAACCCTTGGGTTCTAACCTGTTGCGT (site CTACACCCTTC) | 0.0729
CTAAATCCTTGGGTTCTAACCTGTTGCCT (site ATAAATCCTAG) | 0.111
CTAAATCCTTGGGTTCTAACCTGTTGCCT (site CTAAATCCTAG) | 0.303
CTAAATCCTTGGGTTCTAACCTGTTGCCT (site GTAAATCCTAG) | 0.0932
CTAAATCCTTGGGTTCTAACCTGTTGCCT (site TTAAATCCTAG) | 0.0182
CTAACCGCTTGGGTTCTAACCTGTTGCCT (site CAAACCGCTAG) | 0.471
CTAACCGCTTGGGTTCTAACCTGTTGCCT (site CCAACCGCTAG) | 0.266
CTAACCGCTTGGGTTCTAACCTGTTGCCT (site CGAACCGCTAG) | 0.0568
CTAACCGCTTGGGTTCTAACCTGTTGCCT (site CTAACCGCTAG) | 1.67
CTAACCTCTTGGGTTCTAACCTGTTGCTT (site CTAACCTCTAA) | 0.505
CTAACCTCTTGGGTTCTAACCTGTTGCTT (site CTAACCTCTCA) | 0.149
CTAACCTCTTGGGTTCTAACCTGTTGCTT (site CTAACCTCTGA) | 0.178

Sequence | recombinant barcode read abundance (log10)
CTAACCTCTTGGGTTCTAACCTGTTGCTT (site CTAACCTCTTA) | 0
CTAAGAACTTGGGTTCTAACCTGTTGCAT (site CTAAGAACTAA) | 0.15
CTAAGAACTTGGGTTCTAACCTGTTGCAT (site CTAAGAACTAC) | 0.0166
CTAAGAACTTGGGTTCTAACCTGTTGCAT (site CTAAGAACTAG) | 0.188
CTAAGAACTTGGGTTCTAACCTGTTGCAT (site CTAAGAACTAT) | 1.1
CTAAGAGCTTGGGTTCTAACCTGTTGCCA (site CTAAGAGCTTG) | 0.483
CTAAGAGCTTGGGTTCTAACCTGTTGCCA (site CTAAGCGCTTG) | 0.109
CTAAGAGCTTGGGTTCTAACCTGTTGCCA (site CTAAGGGCTTG) | 0.0357
CTAAGAGCTTGGGTTCTAACCTGTTGCCA (site CTAAGTGCTTG) | 0.116
CTAAGCACTTGGGTTCTAACCTGTTGCCG (site CTAAATACTCG) | 0.849
CTAAGCACTTGGGTTCTAACCTGTTGCCG (site CTAAGCACTCG) | 0.671
CTAAGGACTTGGGTTCTAACCTGTTGCTT (site CTAAGGACTAA) | 0.0753
CTAAGGACTTGGGTTCTAACCTGTTGCTT (site CTAAGGGCTCA) | 0.124
CTAAGGGCTTGGGTTCTAACCTGTTGCCA (site CTAAGAGCTTG) | 0.122
CTAAGGGCTTGGGTTCTAACCTGTTGCCA (site CTAAGCGCTTG) | 0.0306
CTAAGGGCTTGGGTTCTAACCTGTTGCCA (site CTAAGGGCTTG) | 0.591
CTAAGGGCTTGGGTTCTAACCTGTTGCCA (site CTAAGTGCTTG) | 0.233
CTAAGGGCTTGGGTTCTAACCTGTTGCGG (site CTAAGGGCTCC) | 1.94
CTAAGGGCTTGGGTTCTAACCTGTTGCGG (site CTTAGGGCTCC) | 0.303
CTAAGTTCTTGGGTTCTAACCTGTTGCGT (site CTAAGTTCTAC) | 1.77
